The source of these data is patent publication US4952592A, “1,4-dihydro 2,6-dimethyl 4-(2,3-methylenedioxyphenyl) 3-alkoxy carbonyl 5-[2-(substituted amino)ethoxy]carbonyl pyridine” (Instituto de Investigacion Y Desarrollo Quimicobiologico …, priority 1987, dated 1990).

The subject of data set [1] is rat aorta. The data set is described as follows: Inhibitory effects with respect to contractions of the rat aorta induced by 80 mM KCl. Conditions: isolated rat aorta. It is filed as cell-based, WISTAR rats. As for the experimental part:
The compounds of the present invention were tested for their calcium-inhibitory properties by standard methods applicable "in vitro".
Inhibitory effects with respect to contractions of the rat aorta induced by 80 mM KCl.
The aorta of WISTAR rats (220-250 g), sacrificed by decapitation, are removed and placed in a 20-ml organ bath at a temperature of 34° C., containing a KREBS solution composed as follows (in mmol per liter): NaCl, 137; KCl, 2.7; MgCl2.6H2 O, 1.04; CaCl2.2H2 O, 0.8; Na2 HPO4.H2 O, 0.42; NaHCO3, 11.9; glucose, 5. This solution is oxygenated with a mixture of 95% of O2 and 5% of CO2 (Furchgott and Bhadakron, 1956).
After a 45-minute stabilization period under a tension of 2 g, the maximal contractions of the artery are induced by adding KCl to the bath until a final concentration of 80 mmol/liter is attained. After the contractions have stabilized, the compounds of the invention, or OXODIPINE as control substance, are added, leaving a period of at least 10 minutes for stabilizing the relaxation.
The compounds of the present invention are dissolved in ethanol to give concentrated solutions containing approximately 1 mg/ml, from which the dilutions used above, from 10^-13 to 10^-7 M, are obtained by adding saline solution. The 50% inhibitory concentrations (IC50) are determined by analysis of the straight regression line.

For data set [2] the following is noted: 3 mg/kg/min and above, in words; cited from earlier work.
The test system of data set [3] is conscious renal hypertensive rats. The data set is described as follows: antihypertensive activity on conscious renal hypertensive rats (systolic blood pressure, tail sleeve). It is filed as in vivo, rat. Conditions: i.p.; for decrease of the original high pressure: 1 mg/kg. The protocol:
(2)1- antihypertensive activity:
A few compounds according to the invention were tested for their antihypertensive activity on conscious renal hypertensive rats. The systolic blood pressure was measured on the tail of unanaesthetized rats by means of an inflatable sleeve and an L.H.5 000 digital pressure gauge (Letica Instruments, Barcelona, Spain). The measurements were carried out before the i.p. administration of the test substance, and then 30 minutes, 1, 2, 4 and 5 hours after administration. The animals were maintained in preheated plastic cylinders during the measurements. Rats having a blood pressure of less than 160 mmHg were eliminated from the experiment.
Each compound was administered in 5% strength suspension (CMC) by i.p. injection.

Data set [4] in a line: in vivo. Conditions: mouse, ip, mice, i.p., mortality in 7 days, read-out: intraperitoneal LD50. The protocol: The acute toxicity of a few compounds of the invention was determined in mice according to the method of […] and WILCOXON. Groups of 5 mice weighing 20-25 g were treated with increasing i.p. doses of the test compounds. The mortality was recorded in the 7 days following the treatment, and the LD50 calculated on this basis.

For data set [5], the system named is coronary vessels. The data set is described as follows: Vascular activity in anaesthetized dogs: regional blood flows and haemodynamics with coronary artery occlusion. Type of data set: in vivo. Conditions: i.v. The protocol: The beneficial effects on the oxygen supply/consumption balance may be accompanied by a modification of the blood distribution within the wall, which will be better irrigated, and by an increase in the blood flow in the collateral vessels during an acute occlusion of the coronary artery. The effects of the compound of Example 11, at doses of 10 and less than 10 μg/kg i.v., were explored in anaesthetized dogs in order to determine: the regional (endocardium, epicardium) myocardial blood flows in the ischaemic and non-ischaemic zones, the ratio between the endo- and epicardial flows and the ratio of the flows in the ischaemic/nonischaemic zone, the regional blood flows in other areas (spleen, pancreas, kidney, liver, stomach, intestines, muscle, skin) in order to define the selectivity of action of the compound. The studies were carried out on 6 adult dogs, according to the technique of […] and […]. Pharmacol. 1985 - 16 - 59 - 74 and J. Pharmacol. Exp. Ther. 1982, 221, 740-747). In addition, the haemodynamic parameters (heart rate, arterial blood pressure, left ventricular pressure, cardiac flow, total peripheral resistance, systolic ejection volume, cardiac work, contractility index) were monitored at regular times, before and after 3 successive short periods (12 minutes) of total occlusion of the coronary artery, the injection of radioactive microspheres enabling the regional flows to be evaluated. After the first period of ischaemia, the parameters were allowed to return to normal before the test compound was injected, the second occlusion was then performed and this procedure was repeated, the reversibility of the parameters being complete approximately 45 minutes after each occlusion. The test compound was administered in aqueous-alcoholic solution (0.1 mg/ml) on the basis of 0.1 ml/kg i.v.

In data set [1], `CC1=C(C(=O)OCCN(C)Cc2cccs2)C(c2cccc3c2OCO3)C(C(=O)OC(C)C)=C(C)N1` (centres unmarked) [Example 12, 3-Isopropyl 5-{2-[N-methyl-N-(2-thienylmethyl)amino]ethyl}1,4-dihydro-2,6-dimethyl-4-(2,3-methylenedioxyphenyl)-3,5-pyridinedicarboxylate] gave a half-inhibitory concentration (IC50) of 22.5 nM.
For the molecule `COC(=O)C1=C(C)NC(C)=C(C(=O)OC)C1c1ccccc1[N+](=O)[O-]` [NIFEDIPINE], in data set [2], the heart rate result is on record as “increased”, the myocardial regional flows result is listed as “decreases the myocardial regional flows” and the perfusion pressure entry is “strongly reduced”.
In data set [1], `COC(=O)C1=C(C)NC(C)=C(C(=O)OCCN(C)C=O)C1c1cccc2c1OCO2` (centres unmarked) [Example 2, 3-Methyl 5-[2-(N-formyl-N-methylamino)ethyl]1,4-dihydro-2,6-dimethyl-4-(2,3-methylenedioxyphenyl)-3,5-pyridinedicarboxylate] showed an IC50 of 558 nM. This counts as sub-micromolar.
The same measure, in the same setting: to `COC(=O)C1=C(C)NC(C)=C(C(=O)OCCN(C)Cc2cccnc2)C1c1cccc2c1OCO2` (centres unmarked) [Example 6, 3-Methyl 5-{2-[N-methyl-N-(3-picolyl)amino]ethyl}1,4-dihydro-2,6-dimethyl-4-(2,3-methylenedioxyphenyl)-3,5-pyridinedicarboxylate] belongs 9 nM.
Same read-out and setting: the value for `COC(=O)C1=C(C)NC(C)=C(C(=O)OCCN(C=O)Cc2ccccc2)C1c1cccc2c1OCO2` (centres unmarked) [Example 3, 3-Methyl 5-[2-(N-formyl-N-benzylamino)ethyl]1,4-dihydro-2,6-dimethyl-4-(2,3-methylenedioxyphenyl)-3,5-pyridinedicarboxylate] was 52.8 nM; that for `CCOC(=O)C1=C(C)NC(C)=C(C(=O)OCCN(C)Cc2cccs2)C1c1cccc2c1OCO2` (centres unmarked) [Example 10, 3-Ethyl 5-{2-[N-methyl-N-(2-thienylmethyl)amino]ethyl}1,4-dihydro-2,6-dimethyl-4-(2,3-methylenedioxyphenyl)-3,5-pyridinedicarboxylate] was 0.904 nM.
With `CCOC(=O)C1=C(C)NC(C)=C(C(=O)OCCN(C)Cc2ccc(F)cc2)C1c1cccc2c1OCO2` (centres unmarked) [Example 8, 3-Ethyl 5-{2-[N-methyl-N-(4-fluorobenzyl)amino]ethyl}1,4-dihydro-2,6-dimethyl-4-(2,3-methylenedioxyphenyl)-3,5-pyridinedicarboxylate], the “decrease of the original high pressure” value in data set [3] is given as 23%. This molecule returned an IC50 in data set [1] of 0.04 nM. Moreover, the LD50 at 168 h in data set [4] lay within 70 to 80 mg/kg.
`COC(=O)C1=C(C)NC(C)=C(C(=O)OCCN(C)Cc2ccc(F)cc2)C1c1cccc2c1OCO2` (centres unmarked) [Example 7, 3-Methyl 5-{2-[N-methyl-N-(4-fluorobenzyl)amino]ethyl}1,4-dihydro-2,6-dimethyl-4-(2,3-methylenedioxyphenyl)-3,5-pyridinedicarboxylate]: it took 2.75 nM to reach half-maximal inhibition in data set [1] (IC50).
On to `CC1=C(C(=O)OCCN(C)Cc2ccc(F)cc2)C(c2cccc3c2OCO3)C(C(=O)OC(C)C)=C(C)N1` (centres unmarked) [Example 11, 3-Isopropyl 5-{2-[N-methyl-N-(4-fluorobenzyl)amino]ethyl}1,4-dihydro-2,6-dimethyl-4-(2,3-methylenedioxyphenyl)3,5-pyridinedicarboxylate], for which, in data set [3], the “decrease of the original high pressure” value was found to be 33% and the “duration of antihypertensive effects” value is recorded as “more than 6 hours”. Further, in data set [5], the “arterial blood pressure change” value is recorded as -13%, the cardiac flow change entry is reported as “+9%”, the heart rate change is given as -9% and the “systolic ejection volume change” value was “+18%”. Further, the “total peripheral resistance reduction” value in data set [5] amounted to 20%. Also, the epicardial flow increase in data set [5] (ischaemic zones) was at least 20%. For the same molecule, in data set [5] (ischaemic zones, p<0.05), the endo/epi ratio change is listed as -21%. Moreover, in data set [5] (non-ischaemic zones), the transmural flow increase is 42%. Moreover, in data set [5] (non-ischaemic zones, p<0.001), the endo/epi ratio change is listed as -22% and the epicardial flow change result is reported as “+62%”. Besides, in data set [5] (non-ischaemic zones, p<0.05), the “coronary vascular resistance change” value was -38% and the endocardial flow change entry is reported as “+26%”. For the same molecule, the LD50 at 168 h in data set [4] lay within 30 to 40 mg/kg.
On to `COC(=O)C1=C(C)NC(C)=C(C(=O)OCCN(C)Cc2cccs2)C1c1cccc2c1OCO2` (centres unmarked) [Example 9, 3-Methyl 5-{2-[N-methyl-N-(2-thienylmethyl)amino]ethyl}1,4-dihydro-2,6-dimethyl-4-(2,3-methylenedioxyphenyl)-3,5-pyridinedicarboxylate], for which the IC50 in data set [1] turned out to be 13 nM.
In turn, `CNCCOC(=O)C1=C(C)NC(C)=C(C(=O)OC)C1c1cccc2c1OCO2` (centres unmarked) [Example 1, 3-Methyl 5-[2-(N-methylamino)ethyl]1,4-dihydro-2,6-dimethyl-4-(2,3-methylenedioxyphenyl)-3,5-pyridinedicarboxylate] showed an IC50 in data set [1] of 1920 nM.
The same measure, in the same setting: the value for `CCOC(=O)C1=C(C)NC(C)=C(C(=O)OC)C1c1cccc2c1OCO2` (centres unmarked) [OXODIPINE, reference compound] was 3.1 nM; that for `COC(=O)C1=C(C)NC(C)=C(C(=O)OCCN(C)Cc2ccccn2)C1c1cccc2c1OCO2` (centres unmarked) [Example 4, 3 -Methyl 5-{2-[N-methyl-N-(2-picolyl)amino]ethyl}1,4-dihydro-2,6-dimethyl-4-(2,3-methylenedioxyphenyl)-3,5-pyridinedicarboxylate] was 81.1 nM.
Same read-out and setting: the value for `COC(=O)C1=C(C)NC(C)=C(C(=O)OCCN(C)Cc2ccncc2)C1c1cccc2c1OCO2` (centres unmarked) [Example 5, 3-Methyl 5{2-[N-methyl-N-(4-picolyl)amino]ethyl}1,4-dihydro-2,6-dimethyl-4-(2,3-methylenedioxyphenyl)-3,5-pyridinedicarboxylate] was 245 nM.
